{
  "source": "paper PMC5321741",
  "about": "“Arylmethylamino steroids as antiparasitic agents” (Nature Communications, 2017)",
  "key": {"[1]": {"test_system": "P. falciparum (strain 3D7)", "assay": "72 h 3H-hypoxanthine incorporation assay, asexual blood stages", "format": "cell-based, Plasmodium falciparum"}, "haem": {"test_system": "haem", "assay": "ESI-MS collision-induced dissociation of haem adducts", "format": "binding", "details": "50 µM haem and 50 µM substrate; for DV50 (dissociation voltage at 50%) of haem adduct: ESI-CID, 20 V to 400 V; for Bottom plateau (adduct remaining at 400 V): fragmentor voltage 400 V", "method": "Compound Molar Adduct DV50 Bottom Dissociation mass [Haem+S] (V) plateau Constant\nSupplementary Table 7. ESI-MS-CID data (m/z, calculated DV50 = dissociation voltage at 50% and % bottom plateau) of the [haematin-drug]+ adducts and dissociation constants (KD, µM) of the haematin-drug complexes measured with absorption spectrophotometric titrations.\nConditions: 50 µM haem and 50 µM substrate in H2O/CH3CN (5/95) + 0.1% formic acid.\nStability responses of the haem substrate adduct were obtained via ESI-CID experiments.\nPositive mode; fragmentor voltage from 20 V to 400 V with 20 V increments. […]\n- 41/120 g), and complete dissolution was achieved using an ultrasonic bath. All solutions were protected from daylight to avoid any photochemical degradation. All the physiochemical measurements were carried out at 25.0(2) °C. […]\nElectrospray mass spectrometric measurements stopping point\nElectrospray mass spectra of the haem complexes were obtained with an Agilent Technologies 6120 quadrupole equipped with an electrospray (ESI) interface. For"}, "[2]": {"test_system": "Bacillus subtilis JMRC:STI:10880", "assay": "agar diffusion inhibition zone test", "format": "cell-based", "details": "1o, ciprofloxacin 5 µg/ml, solvent DMSO 12P", "method": "(§1) The following organisms were tested at the Hans Knöll Institute in Jena, for their susceptibility to the compounds 1o and 2o: Bacillus subtilis JMRC:STI:10880, Staphylococcus aureus JMRC:ST:10760, Escherichia coli JMRC:ST:33699, Pseudomonas aeruginosa JMRC:ST:33772, Pseudomonas aeruginosa JMRC:ST:337721, Staphylococcus aureus JMRC:ST:33793 (multi-resistant), Enterococcus faecalis JMRC:ST:33700 (Vancomycin-resistant), Mycobacterium vaccae JMRC:STI:10670, Sporobolomyces salmonicolor (Basidiomycetes yeast) JMRC:ST:35974, Candida albicans (Ascomycetes yeast) JMRC:STI:25000, Penicillium notatum JMRC:STI:50164.\n(§2) The bacteria were propagated in Mueller Hinton Broth (Oxoid)[49]. Yeast was propagated in YPD (yeast extract peptone dextrose): 1% yeast extract, 10 g; 2% peptone, 20 g; 2% agar, 20 g; 2% dextrose (glucose), 20 g; Sigma-Y1375. All bacteria and yeast suspensions were freshly made. The cultures were incubated at 37 °C for 16 h. Afterwards, the bacteria concentration from each culture was determined, and 34 ml of nutrient agar was loaded with 10^7 cells. These cultures were stored at 6-8 °C and could be used for seven days for the preparation of test plates. 34 ml of nutrient agar was liquefied and inoculated with the calculated amount of inoculum bacteria suspension at 48–50 °C, a temperature suitable for vegetative forms of bacteria. The inoculated nutrient media (34 ml each) were immediately poured into the prepared test plates (3 mm layer). With a punching device, 12 holes per test plate were punched out. For inhibiting bacterial growth, ciprofloxacin was used as a reference substance. The test substances were dissolved in distilled water, and 5 μg ml^−1 and 50 μl was added to each bacterial culture. For inhibition of fungal growth, amphotericin B served as the reference substance. The test substances were diluted to 10 μg ml^−1 in DMSO/methanol; 50 μl was added to each culture.\n(§3) Configuring the test plate; volumes/punched hole: 50 μl; test solutions/test plate: 1 × 50 μl reference substance. Test plates were cultivated for 18 h at 37 °C. Analysis: Reading the inhibition zones (IZ): As IZ, the zone in which no growth can be determined with the naked eye is measured; the tiniest colonies on the edge of the inhibition zone were therefore not taken into consideration. The diameter (φ) of the IZ is measured in mm. The analysis of IZ φ is carried out internationally with the help of statistic procedures, especially regression analysis. With each test approach, the reference substance was brought along as a control; if there were deviations from allowed IZ φ, the test was repeated.\n(§4) The inhibition of bacterial growth was determined using bacterial cultures grown in Müller-Hinton Bouillon, which was configured at barely visible opacity with the McFarland Standard Nr. 0.5, which indicates a bacterial density of 10^8 ml^−1. This bacterial suspension was diluted with Müller-Hinton Bouillon using 2-fold dilution series in the agar diffusion test.\n(§5) Analysis: The growth in the inhibition zones around the holes containing active substances is thereby compared with the growth in the growth control (no active substance). Bacterial growth was determined according to four measurements: p=presence of colonies in the inhibition zone, P=presence of many colonies in the inhibition zone, A=indication of inhibition, F=facilitation."}, "[3]": {"test_system": "Enterococcus faecalis JMRC:ST:33700 (Vancomycin-resistant)", "assay": "agar diffusion inhibition zone test", "format": "cell-based", "details": "1o, ciprofloxacin 5 µg/ml, solvent DMSO 12P", "method": "as §1, §2, §3, §4, §5"}, "[4]": {"test_system": "Escherichia coli JMRC:ST:33699", "assay": "agar diffusion inhibition zone test", "format": "cell-based", "details": "1o, 2o 1,000 µg/ml in DMSO; ciprofloxacin 5 µg/ml; solvent DMSO 13P", "method": "as §1, §2, §3, §4, §5"}, "[5]": {"test_system": "Mycobacterium vaccae JMRC:STI:10670", "assay": "agar diffusion inhibition zone test", "format": "cell-based", "details": "1o, 2o 1,000 µg/ml in DMSO; ciprofloxacin 5 µg/ml; solvent DMSO 13P", "method": "as §1, §2, §3, §4, §5"}, "[6]": {"test_system": "Penicillium notatum JMRC:STI:50164", "assay": "agar diffusion inhibition zone test", "format": "cell-based", "details": "1o, 2o 1,000 µg/ml in DMSO, amphotericin B 10 µg/ml, solvent DMSO 13p", "method": "as §1, §2, §3, §4, §5"}, "[7]": {"test_system": "Pseudomonas aeruginosa JMRC:ST:337721", "assay": "agar diffusion inhibition zone test", "format": "cell-based", "details": "1o, ciprofloxacin 5 µg/ml, solvent DMSO 16P", "method": "as §1, §2, §3, §4, §5"}, "[8]": {"test_system": "Pseudomonas aeruginosa JMRC:ST:33772", "assay": "agar diffusion inhibition zone test", "format": "cell-based", "details": "1o, ciprofloxacin 5 µg/ml, solvent DMSO 13P", "method": "as §1, §2, §3, §4, §5"}, "[9]": {"test_system": "Sporobolomyces salmonicolor JMRC:ST:35974", "assay": "agar diffusion inhibition zone test", "format": "cell-based", "details": "1o, 2o 1,000 µg/ml in DMSO; amphotericin B 10 µg/ml; solvent DMSO 20p", "method": "as §1, §2, §3, §4, §5"}, "[10]": {"test_system": "Staphylococcus aureus JMRC:ST:10760", "assay": "agar diffusion inhibition zone test", "format": "cell-based", "details": "1o, ciprofloxacin 5 µg/ml, solvent DMSO 12P", "method": "as §1, §2, §3, §4, §5"}, "[11]": {"test_system": "Staphylococcus aureus JMRC:ST:33793 (multi-resistant)", "assay": "agar diffusion inhibition zone test", "format": "cell-based", "details": "1o, ciprofloxacin 5 µg/ml, solvent DMSO 12P", "method": "as §1, §2, §3, §4, §5"}, "[12]": {"details": "Plasmodium falciparum, 3D7, 72 h 3H-hypoxanthine incorporation, asexual blood stages, read-out: Antiplasmodial activity IC50 Pf (3D7)"}},
  "note": "“And” between values parts separate entries of the source, which are not always exact repeats. Equal values may be shown once. Read-outs that look alike come from different tables or passages of the source.",
  "data": [
    {"smiles": "COc1ccc2c(c1)CCC1C2CC[C@@]2(C)C1CC[C@H]2NCc1cc2ccccc2cc1O", "note": "(stereo partly shown) [1o]", "values": [
      {"measurement": "IC50", "setting": "[1]; 72 h 3H-hypoxanthine incorporation, asexual blood stages, read-out: Antiplasmodial activity IC50 Pf (3D7)", "result": 4.1, "unit": "nM"},
      {"measurement": "IC50", "setting": "[1]; [12]", "result": "~5", "unit": "nM"},
      {"measurement": "IC50", "setting": "[1]; Plasmodium falciparum, 3D7, chloroquine-sensitive and resistant P. falciparum parasites, read-out: IC50 against intraerythrocytic stages", "result": "1 to 5", "unit": "nM"},
      {"measurement": "DV50 (dissociation voltage at 50%) of haem adduct", "setting": "haem", "result": 290, "unit": "V"},
      {"measurement": "Bottom plateau (adduct remaining at 400 V)", "setting": "haem", "result": "~ 20% and 20%"},
      {"measurement": "inhibition zone diameter, Bacillus subtilis (B1)", "setting": "[2]; 2o 1,000 µg/ml in DMSO", "result": 0, "unit": "mm"},
      {"measurement": "inhibition zone diameter, VRSA Enteroc. faecalis (R10)", "setting": "[3]; 2o 1,000 µg/ml in DMSO", "result": 0, "unit": "mm"},
      {"measurement": "inhibition zone diameter, Escherichia coli (B4)", "setting": "[4]", "result": 15, "unit": "P"},
      {"measurement": "inhibition zone diameter, Mycobac. vaccae (M4)", "setting": "[5]", "result": 18, "unit": "p"},
      {"measurement": "inhibition zone diameter, Penicillium notatum (P1)", "setting": "[6]", "result": 0, "unit": "mm"},
      {"measurement": "inhibition zone diameter, Pseudomonas aeruginosa JMRC:ST:337721 (B9)", "setting": "[7]; 2o 1,000 µg/ml in DMSO", "result": 0, "unit": "mm"},
      {"measurement": "inhibition zone diameter, Pseudomonas aeruginosa JMRC:ST:33772 (B7)", "setting": "[8]; 2o 1,000 µg/ml in DMSO", "result": 0, "unit": "mm"},
      {"measurement": "inhibition zone diameter, Sporobolo. salmonicolor (H4)", "setting": "[9]", "result": 22, "unit": "p"},
      {"measurement": "inhibition zone diameter, Staphylococcus aureus (B3)", "setting": "[10]; 2o 1,000 µg/ml in DMSO", "result": 0, "unit": "mm"},
      {"measurement": "inhibition zone diameter, MRSA Staph. aureus (R9)", "setting": "[11]; 2o 1,000 µg/ml in DMSO", "result": 0, "unit": "mm"}
    ]},
    {"smiles": "COc1ccc2c(c1)CCC1C2CC[C@@]2(C)C1CC[C@@H]2NCc1cc2ccccc2cc1O", "note": "(stereo partly shown) [2o]", "values": [
      {"measurement": "IC50", "setting": "[1]; [12]", "result": 6.6, "unit": "nM"},
      {"measurement": "DV50 (dissociation voltage at 50%) of haem adduct", "setting": "haem", "result": 280, "unit": "V"},
      {"measurement": "Bottom plateau (adduct remaining at 400 V)", "setting": "haem", "result": "21.7% and ~ 20%"},
      {"measurement": "zone of inhibition", "setting": "[2]; Bacillus subtilis, read-out: inhibition zone diameter, Bacillus subtilis (B1)", "result": 0, "unit": "mm"},
      {"measurement": "zone of inhibition", "setting": "[3]; read-out: inhibition zone diameter, VRSA Enteroc. faecalis (R10)", "result": 0, "unit": "mm"},
      {"measurement": "inhibition zone diameter, Escherichia coli (B4)", "setting": "[4]", "result": 16, "unit": "P"},
      {"measurement": "inhibition zone diameter, Mycobac. vaccae (M4)", "setting": "[5]", "result": 17, "unit": "p"},
      {"measurement": "zone of inhibition at 1000 µg/mL", "setting": "[6]; Penicillium chrysogenum, read-out: inhibition zone diameter, Penicillium notatum (P1)", "result": 0, "unit": "mm"},
      {"measurement": "zone of inhibition", "setting": "[7]; Pseudomonas aeruginosa, read-out: inhibition zone diameter, Pseudomonas aeruginosa JMRC:ST:337721 (B9)", "result": 0, "unit": "mm"},
      {"measurement": "zone of inhibition", "setting": "[8]; Pseudomonas aeruginosa, read-out: inhibition zone diameter, Pseudomonas aeruginosa JMRC:ST:33772 (B7)", "result": 0, "unit": "mm"},
      {"measurement": "inhibition zone diameter, Sporobolo. salmonicolor (H4)", "setting": "[9]", "result": 24, "unit": "p"},
      {"measurement": "zone of inhibition", "setting": "[10]; Staphylococcus aureus, read-out: inhibition zone diameter, Staphylococcus aureus (B3)", "result": 0, "unit": "mm"},
      {"measurement": "zone of inhibition", "setting": "[11]; Staphylococcus aureus, MRSA, read-out: inhibition zone diameter, MRSA Staph. aureus (R9)", "result": 0, "unit": "mm"}
    ]}
  ]
}
